Values joined by “and” are separate entries in the source; they are usually repeats but may differ in a detail not shown here. Identical values can stand only once.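 Following 48 hours of exposure in 96-well plates, responses at five concentrations were used to interpolate endpoints linearly. GI50 = concentration required for 50% inhibition of growth. TGI is the concentration that stops growth completely.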
Legend:
Experiment in all cases: DTP human tumour cell line panel, 48 h
786-0 renal = system: 786-0 renal
A498 renal = system: A498 renal
A549 NSCLC = system: A549 NSCLC
ACHN renal = system: ACHN renal
BT-549 breast = system: BT-549 breast
CAKI-1 renal = system: CAKI-1 renal
CCRF-CEM leukemia = system: CCRF-CEM leukemia
COLO 205 colon = system: COLO 205 colon
DU-145 prostate = system: DU-145 prostate
HCC-2998 colon = system: HCC-2998 colon
HCT-116 colon = system: HCT-116 colon
HCT-15 colon = system: HCT-15 colon
HL-60(TB) leukemia = system: HL-60(TB) leukemia
HOP-62 NSCLC = system: HOP-62 NSCLC
HOP-92 NSCLC = system: HOP-92 NSCLC
HS 578T breast = system: HS 578T breast
HT29 colon = system: HT29 colon
IGROV1 ovarian = system: IGROV1 ovarian
K-562 leukemia = system: K-562 leukemia
KM12 colon = system: KM12 colon
LOX IMVI melanoma = system: LOX IMVI melanoma
M14 melanoma = system: M14 melanoma
MALME-3M melanoma = system: MALME-3M melanoma
MCF7 breast = system: MCF7 breast
MDA-MB-231 breast = system: MDA-MB-231 breast
MDA-MB-435 = system: MDA-MB-435
MOLT-4 leukemia = system: MOLT-4 leukemia
NCI-H226 lung = system: NCI-H226 lung
NCI-H23 lung = system: NCI-H23 lung

Question: Which results are given for `CN1C[C@@H]2Cn3c(c(C4=C(c5cn(C)c6ccccc56)C(=O)NC4=O)c4ccccc43)C[C@H]2C1`?
Answer: GI50 (786-0 renal): 4.75 µM and 4.57 µM; TGI (786-0 renal): 9.33 µM and 8.9 µM; GI50 (A498 renal): 4.76 µM and 4.45 µM; TGI (A498 renal): 8.59 µM and 8.23 µM; GI50 (A549 NSCLC): 4.4 µM and 3.51 µM; TGI (A549 NSCLC): 10.5 µM and 8.75 µM; GI50 (ACHN renal): 4.16 µM and 3.51 µM; TGI (ACHN renal): 12.6 µM and 8.98 µM; GI50 (BT-549 breast): 4.51 µM and 4.36 µM; TGI (BT-549 breast): 8.4 µM and 8.59 µM; GI50 (CAKI-1 renal): 3.43 µM and 4.29 µM; TGI (CAKI-1 renal): 8.28 µM and 9.96 µM; GI50 (CCRF-CEM leukemia): 2.13 µM and 5.69 µM; TGI (CCRF-CEM leukemia): 11.7 µM and 17.6 µM; GI50 (COLO 205 colon): 3.09 µM and 1.96 µM; TGI (COLO 205 colon): 6.7 µM and 5.72 µM; GI50 (DU-145 prostate): 6.27 µM and 5.46 µM; TGI (DU-145 prostate): 16.3 µM and 14.7 µM; GI50 (HCC-2998 colon): 4.59 µM and 4.4 µM; TGI (HCC-2998 colon): 8.71 µM and 9.65 µM; GI50 (HCT-116 colon): 4.2 µM and 3.02 µM; TGI (HCT-116 colon): 9.66 µM and 8.22 µM; GI50 (HCT-15 colon): 4.41 µM and 3.58 µM; TGI (HCT-15 colon): 13.1 µM and 10.9 µM; GI50 (HL-60(TB) leukemia): 5.48 µM and 3.63 µM; TGI (HL-60(TB) leukemia): 10.5 µM and 8.53 µM; GI50 (HOP-62 NSCLC): 4.29 µM and 4.01 µM; TGI (HOP-62 NSCLC): 9.32 µM and 8.42 µM; GI50 (HOP-92 NSCLC): 6.76 µM; TGI (HOP-92 NSCLC): 12.7 µM; GI50 (HS 578T breast): 2.71 µM and 2.63 µM; TGI (HS 578T breast): 8.34 µM and 9.51 µM; GI50 (HT29 colon): 3.87 µM and 3.22 µM; TGI (HT29 colon): 10.8 µM and 11.6 µM; GI50 (IGROV1 ovarian): 5.73 µM and 6.57 µM; TGI (IGROV1 ovarian): 11 µM and 15 µM; GI50 (K-562 leukemia): 4.9 µM and 2.37 µM; TGI (K-562 leukemia): 10.4 µM and 6.88 µM; GI50 (KM12 colon): 4.49 µM and 3.67 µM; TGI (KM12 colon): 9.19 µM and 7.87 µM; GI50 (LOX IMVI melanoma): 4.16 µM and 3.96 µM; TGI (LOX IMVI melanoma): 7.9 µM and 7.86 µM; GI50 (M14 melanoma): 4.07 µM and 3.96 µM; TGI (M14 melanoma): 8.24 µM and 7.83 µM; GI50 (MALME-3M melanoma): 3.78 µM and 3.89 µM; TGI (MALME-3M melanoma): 7.36 µM and 8.03 µM; GI50 (MCF7 breast): 3.6 µM and 3.15 µM; TGI (MCF7 breast): 8.7 µM and 9.66 µM; GI50 (MDA-MB-231 breast): 4.37 µM and 4.1 µM; TGI (MDA-MB-231 breast): 8.85 µM and 9.22 µM; GI50 (MDA-MB-435): 3.43 µM and 3.16 µM; TGI (MDA-MB-435): 7.09 µM; GI50 (MOLT-4 leukemia): 5.46 µM and 3.49 µM; TGI (MOLT-4 leukemia): 16.8 µM and 11.9 µM; GI50 (NCI-H226 lung): 4.53 µM and 4.06 µM; TGI (NCI-H226 lung): 15 µM and 10.9 µM; GI50 (NCI-H23 lung): 4.96 µM and 6.11 µM

Source: PubChem BioAssay (NCI)
